From ChEMBL document CHEMBL1136043, “Synthesis of (+)-Lasonolide A: (-)-lasonolide A is the biologically active enantiomer” (2002) come the findings set out here.

What all share (type): functional
The test system of one assay is A549. The assay can be described thus: Concentration required for growth inhibition of human lung carcinoma cell line A549.
The next assay concerns HCT-116. The assay can be described thus: Concentration required for growth inhibition human of human colon cancer cell line HCT116.
A further assay has as its system NCI-H460. The assay is described as follows: Concentration required for growth inhibition of human lung carcinoma cell line NCI-H460.

Bounds are passed on as bounds.

Take `C=C(CCC(C)C)COC(=O)[C@@H](O)C/C=C\C[C@H]1O[C@H]2/C=C/C/C=C/C(C)=C\[C@@H]3O[C@H](C/C=C/C=C/C(=O)O[C@@H](C2)[C@]1(C)CO)C[C@@H](O)[C@@H]3C`: the figures for the GI50 in the assay on A549, in the assay with HCT-116 and in the assay with NCI-H460 were 6000 nM, 2000 nM and 3000 nM, respectively.
The like results for `C=C(CCC(C)C)COC(=O)[C@@H](O)C/C=C/C[C@@H]1O[C@@H]2/C=C/C/C=C/C(C)=C\[C@H]3O[C@@H](C/C=C/C=C/C(=O)O[C@H](C2)[C@@]1(C)CO)C[C@H](O)[C@H]3C` were, in that order, 3200 nM, 40 nM and 100 nM.
The like results for `C=C(CCC(C)C)COC(=O)[C@@H](O)C/C=C\C[C@@H]1O[C@@H]2/C=C\C/C=C/C(C)=C\[C@H]3O[C@@H](C/C=C/C=C/C(=O)O[C@H](C2)[C@@]1(C)CO)C[C@H](O)[C@H]3C` were, in that order, more than 10000 nM, 5000 nM and 5000 nM.
The like results for `C=C(CCC(C)C)COC(=O)[C@H](O)C/C=C\C[C@@H]1O[C@@H]2/C=C/C/C=C/C(C)=C\[C@H]3O[C@@H](C/C=C/C=C/C(=O)O[C@H](C2)[C@@]1(C)CO)C[C@H](O)[C@H]3C` [LASONOLIDE A] were, in that order, 20 nM, less than 3 nM and less than 3 nM.
For `C=C(CCC(C)C)COC(=O)[C@@H](O)C/C=C\C[C@@H]1O[C@@H]2/C=C/C/C=C/C(C)=C\[C@H]3O[C@@H](C/C=C/C=C/C(=O)O[C@H](C2)[C@@]1(C)CO)C[C@H](O)[C@H]3C`, the GI50 is 50 nM in the assay with A549, less than 3 nM in the assay with HCT-116 and 9 nM with NCI-H460.
In the case of `C=C(CCC(C)C)COC(=O)[C@H](O)C/C=C/C[C@@H]1O[C@@H]2/C=C/C/C=C/C(C)=C\[C@H]3O[C@@H](C/C=C/C=C/C(=O)O[C@H](C2)[C@@]1(C)CO)C[C@H](O)[C@H]3C`, the results for the GI50 in the assay on A549, in the assay with HCT-116 and in the assay with NCI-H460 were 2000 nM, 20 nM and 40 nM, respectively.
